Laboratory results reported in ChEMBL document CHEMBL1127843, “2-(3,4-Dichlorophenyl)-N-methyl-N-[(1S)-1-(3-isothiocyanatophenyl)-2-(1-pyrrolidinyl)ethyl]acetamide: an opioid receptor affinity label that produces selective and long-lasting kappa antagonism in mice” (J Med Chem, 1994).
pIC50: −log10 of the molar value.

Test system: Mus musculus
Assay: Compound was evaluated for […] antagonist activity towards Mouse vas deferens(MVD)
Assay type: functional

CN(C(=O)Cc1ccc(Cl)c(Cl)c1)[C@H](CN1CCCC1)c1cccc(N=C=S)c1
pIC50: 7.95
